This passage reports IC50 results from patent US12522602B2, “Derivatives having 2,3-dihydro-1H-indene or 2,3-dihydrobenzofuran moiety or pharmaceutically acceptable salt thereof and pharmaceutical compositions comprising the same” (YUHAN CORPORATION, priority 2019, dated 2026).

The test relates to GM1 production in Jurkat cells. In words: cells. The test is classed as cell-based. Conditions: Homo sapiens, Jurkat, 72 h.

pIC50: −log10 of the molar value.

As for `COc1ccc2cc(-c3ccc4c(c3)CC(C)(C)C4NC(=O)O[C@@H]3CN4CCC3CC4)ccc2c1` (stereo partly drawn) [Example 189, (S)-quinuclidin-3-yl (5-(6-methoxynaphthalen-2-yl)-2,2-dimethyl-2,3-dihydro-1H-inden-1-yl)carbamate], the pIC50 – broadly, the negative decadic logarithm of the IC50, by convention in mol/L – was 7.64.
The compound `CC1(C)Cc2cc(-c3cccc(-c4ccccc4)c3)ccc2C1NC(=O)O[C@@H]1CN2CCC1CC2` (stereo partly drawn) [Example 190, (S)-quinuclidin-3-yl (5-([1,1′-biphenyl]-3-yl)-2,2-dimethyl-2,3-dihydro-1H-inden-1-yl)carbamate] gave a pIC50 of 7.88.
In the case of `CC1(C)Cc2cc(-c3ccc4nccnc4c3)ccc2C1NC(=O)O[C@@H]1CN2CCC1CC2` (stereo partly drawn) [Example 191, (S)-quinuclidin-3-yl (2,2-dimethyl-5-(quinoxalin-6-yl)-2,3-dihydro-1H-inden-1-yl)carbamate], the negative-log IC50 (pIC50) is 6.91.
Then `Cc1cc(C)cc(-c2ccc3c(c2)CC(C)(C)C3NC(=O)O[C@@H]2CN3CCC2CC3)c1` (stereo partly drawn) [Example 192, (S)-quinuclidin-3-yl (5-(3,5-dimethylphenyl)-2,2-dimethyl-2,3-dihydro-1H-inden-1-yl)carbamate], with 7.59; and `CC1(C)Cc2cc(-c3ccco3)ccc2C1NC(=O)O[C@@H]1CN2CCC1CC2` (stereo partly drawn) [Example 193, (S)-quinuclidin-3-yl (5-(furan-2-yl)-2,2-dimethyl-2,3-dihydro-1H-inden-1-yl)carbamate], with 7.82; and `Cc1cc(-c2ccc3c(c2)CC(C)(C)C3NC(=O)O[C@@H]2CN3CCC2CC3)cc(C)c1OC(C)C` (stereo partly drawn) [Example 194, (S)-quinuclidin-3-yl (5-(4-isopropoxy-3,5-dimethylphenyl)-2,2-dimethyl-2,3-dihydro-1H-inden-1-yl)carbamate], with 7.32.
As for `COc1c(C)cc(-c2ccc3c(c2)CC(C)(C)C3NC(=O)O[C@@H]2CN3CCC2CC3)cc1C` (stereo partly drawn) [Example 195, (S)-quinuclidin-3-yl (5-(4-methoxy-3,5-dimethylphenyl)-2,2-dimethyl-2,3-dihydro-1H-inden-1-yl)carbamate], the pIC50 was 7.44.
In the case of `CC(C)Oc1ccc(-c2ccc3c(c2)CC(C)(C)C3NC(=O)O[C@@H]2CN3CCC2CC3)cn1` (stereo partly drawn) [Example 196, (S)-quinuclidin-3-yl (5-(6-isopropoxypyridin-3-yl)-2,2-dimethyl-2,3-dihydro-1H-inden-1-yl)carbamate], the pIC50 is 7.63.
Consider `CC1(C)Cc2cc(-c3cccc(OCCF)c3)ccc2C1NC(=O)O[C@@H]1CN2CCC1CC2` (stereo partly drawn) [Example 197, (S)-quinuclidin-3-yl (5-(3-(2-fluoroethoxy)phenyl)-2,2-dimethyl-2,3-dihydro-1H-inden-1-yl)carbamate], for which the pIC50 is 8.06.
For `CCOc1ccc(C)cc1-c1ccc2c(c1)CC(C)(C)C2NC(=O)O[C@@H]1CN2CCC1CC2` (stereo partly drawn) [Example 198, (S)-quinuclidin-3-yl (5-(2-ethoxy-5-methylphenyl)-2,2-dimethyl-2,3-dihydro-1H-inden-1-yl)carbamate], the pIC50 is 7.93.
Turning to `CCCOc1cccc(-c2ccc3c(c2)CC(C)(C)C3NC(=O)O[C@@H]2CN3CCC2CC3)c1` (stereo partly drawn) [Example 199, (S)-quinuclidin-3-yl (2,2-dimethyl-5-(3-propoxyphenyl)-2,3-dihydro-1H-inden-1-yl)carbamate], the pIC50 is 8.26.
The value for `COc1ccc(C)cc1-c1ccc2c(c1)CC(C)(C)C2NC(=O)O[C@@H]1CN2CCC1CC2` (stereo partly drawn) [Example 200, (S)-quinuclidin-3-yl (5-(2-methoxy-5-methylphenyl)-2,2-dimethyl-2,3-dihydro-1H-inden-1-yl)carbamate] was 8.43; that for `CCCCOc1ccc(F)cc1-c1ccc2c(c1)CC(C)(C)C2NC(=O)O[C@@H]1CN2CCC1CC2` (stereo partly drawn) [Example 201, (S)-quinuclidin-3-yl (5-(2-butoxy-5-fluorophenyl)-2,2-dimethyl-2,3-dihydro-1H-inden-1-yl)carbamate] was 7.42.
In turn, `CCCCOc1ccc(-c2ccc3c(c2)CC(C)(C)C3NC(=O)O[C@@H]2CN3CCC2CC3)cc1Cl` (stereo partly drawn) [Example 202, (S)-quinuclidin-3-yl (5-(4-butoxy-3-chlorophenyl)-2,2-dimethyl-2,3-dihydro-1H-inden-1-yl)carbamate] showed a negative-log IC50 (pIC50) of 7.58.
For `CCCOc1ccc(-c2ccc3c(c2)CC(C)(C)C3NC(=O)O[C@@H]2CN3CCC2CC3)c(OCCC)c1` (stereo partly drawn) [Example 203, (S)-quinuclidin-3-yl (5-(2,4-dipropoxyphenyl)-2,2-dimethyl-2,3-dihydro-1H-inden-1-yl)carbamate], the pIC50 was 8.09.
Then `CCOc1ccc(-c2ccc3c(c2)CC(C)(C)C3NC(=O)O[C@@H]2CN3CCC2CC3)cc1Cl` (stereo partly drawn) [Example 204, (S)-quinuclidin-3-yl (5-(3-chloro-4-ethoxyphenyl)-2,2-dimethyl-2,3-dihydro-1H-inden-1-yl)carbamate], with 7.24.
Compound `CC(C)COc1cccc(-c2ccc3c(c2)CC(C)(C)C3NC(=O)O[C@@H]2CN3CCC2CC3)c1` (stereo partly drawn) [Example 205, (S)-quinuclidin-3-yl (5-(3-isobutoxyphenyl)-2,2-dimethyl-2,3-dihydro-1H-inden-1-yl)carbamate] showed a pIC50 of 8.12.
For `CCOc1ccc(-c2ccc3c(c2)CC(C)(C)C3NC(=O)O[C@@H]2CN3CCC2CC3)c(C)c1` (stereo partly drawn) [Example 206, (S)-quinuclidin-3-yl (5-(4-ethoxy-2-methylphenyl)-2,2-dimethyl-2,3-dihydro-1H-inden-1-yl)carbamate], the pIC50 was 7.85.
As for `CCCOc1ccc(-c2ccc3c(c2)CC(C)(C)C3NC(=O)O[C@@H]2CN3CCC2CC3)cc1Cl` (stereo partly drawn) [Example 207, (S)-quinuclidin-3-yl (5-(3-chloro-4-propoxyphenyl)-2,2-dimethyl-2,3-dihydro-1H-inden-1-yl)carbamate], the pIC50 is 7.23.
`CC(C)Oc1ccc(F)cc1-c1ccc2c(c1)CC(C)(C)C2NC(=O)O[C@@H]1CN2CCC1CC2` (stereo partly drawn) [Example 208, (S)-quinuclidin-3-yl (5-(5-fluoro-2-isopropoxyphenyl)-2,2-dimethyl-2,3-dihydro-1H-inden-1-yl)carbamate]: the pIC50 was 7.17.
Regarding `CC(C)Oc1ccc(-c2ccc3c(c2)CC(C)(C)C3NC(=O)O[C@@H]2CN3CCC2CC3)cc1F` (stereo partly drawn) [Example 209, (S)-quinuclidin-3-yl (5-(3-fluoro-4-isopropoxyphenyl)-2,2-dimethyl-2,3-dihydro-1H-inden-1-yl)carbamate], the negative logarithm of the IC50 (pIC50) was 7.49.
`COc1ccc(Cl)cc1-c1ccc2c(c1)CC(C)(C)C2NC(=O)O[C@@H]1CN2CCC1CC2` (stereo partly drawn) [Example 210, (S)-quinuclidin-3-yl (5-(5-chloro-2-methoxyphenyl)-2,2-dimethyl-2,3-dihydro-1H-inden-1-yl)carbamate] had a pIC50 of 8.12.
`Cc1ccc(F)c(-c2ccc3c(c2)CC(C)(C)C3NC(=O)O[C@@H]2CN3CCC2CC3)c1` (stereo partly drawn) [Example 211, (S)-quinuclidin-3-yl (5-(2-fluoro-5-methylphenyl)-2,2-dimethyl-2,3-dihydro-1H-inden-1-yl)carbamate]: the pIC50 was 7.88.
On to `CCOc1ccc(Cl)cc1-c1ccc2c(c1)CC(C)(C)C2NC(=O)O[C@@H]1CN2CCC1CC2` (stereo partly drawn) [Example 212, (S)-quinuclidin-3-yl (5-(5-chloro-2-ethoxyphenyl)-2,2-dimethyl-2,3-dihydro-1H-inden-1-yl)carbamate], for which the pIC50 is 7.72.
Then `CCCOc1ccc(F)cc1-c1ccc2c(c1)CC(C)(C)C2NC(=O)O[C@@H]1CN2CCC1CC2` (stereo partly drawn) [Example 213, (S)-quinuclidin-3-yl (5-(5-fluoro-2-propoxyphenyl)-2,2-dimethyl-2,3-dihydro-1H-inden-1-yl)carbamate], with 7.40; and `CCCOc1cccc(F)c1-c1ccc2c(c1)CC(C)(C)C2NC(=O)O[C@@H]1CN2CCC1CC2` (stereo partly drawn) [Example 214, (S)-quinuclidin-3-yl (5-(2-fluoro-6-propoxyphenyl)-2,2-dimethyl-2,3-dihydro-1H-inden-1-yl)carbamate], with 7.19.
Regarding `Cc1ccc(-c2ccc3c(c2)CC(C)(C)C3NC(=O)O[C@@H]2CN3CCC2CC3)cc1F` (stereo partly drawn) [Example 215, (S)-quinuclidin-3-yl (5-(3-fluoro-4-methylphenyl)-2,2-dimethyl-2,3-dihydro-1H-inden-1-yl)carbamate], the negative-log IC50 (pIC50) was 7.83.
For the compound `CCCOc1ccc(-c2ccc3c(c2)CC(C)(C)C3NC(=O)O[C@@H]2CN3CCC2CC3)cc1F` (stereo partly drawn) [Example 216, (S)-quinuclidin-3-yl (5-(3-fluoro-4-propoxyphenyl)-2,2-dimethyl-2,3-dihydro-1H-inden-1-yl)carbamate], the pIC50 was 7.54.
Take `CC(C)Oc1ccc(Cl)cc1-c1ccc2c(c1)CC(C)(C)C2NC(=O)O[C@@H]1CN2CCC1CC2` (stereo partly drawn) [Example 217, (S)-quinuclidin-3-yl (5-(5-chloro-2-isopropoxyphenyl)-2,2-dimethyl-2,3-dihydro-1H-inden-1-yl)carbamate]: the pIC50 is 7.14.
Compound `CCCCOc1cccc(-c2ccc3c(c2)CC(C)(C)C3NC(=O)O[C@@H]2CN3CCC2CC3)c1` (stereo partly drawn) [Example 218, (S)-quinuclidin-3-yl (5-(3-butoxyphenyl)-2,2-dimethyl-2,3-dihydro-1H-inden-1-yl)carbamate] had a negative-log IC50 (pIC50) of 8.17.
For the compound `Cc1cc(F)cc(-c2ccc3c(c2)CC(C)(C)C3NC(=O)O[C@@H]2CN3CCC2CC3)c1` (stereo partly drawn) [Example 219, (S)-quinuclidin-3-yl (5-(3-fluoro-5-methylphenyl)-2,2-dimethyl-2,3-dihydro-1H-inden-1-yl)carbamate], the pIC50 was 7.52.
`Cc1ccc(F)cc1-c1ccc2c(c1)CC(C)(C)C2NC(=O)O[C@@H]1CN2CCC1CC2` (stereo partly drawn) [Example 220, (S)-quinuclidin-3-yl (5-(5-fluoro-2-methylphenyl)-2,2-dimethyl-2,3-dihydro-1H-inden-1-yl)carbamate]: the pIC50 is 7.75.
Then `CC1(C)Cc2cc(-c3cc(C(F)(F)F)ccc3Cl)ccc2C1NC(=O)O[C@@H]1CN2CCC1CC2` (stereo partly drawn) [Example 221, (S)-quinuclidin-3-yl (5-(2-chloro-5-(trifluoromethyl)phenyl)-2,2-dimethyl-2,3-dihydro-1H-inden-1-yl)carbamate], with 7.77; and `COc1cc(F)cc(-c2ccc3c(c2)CC(C)(C)C3NC(=O)O[C@@H]2CN3CCC2CC3)c1` (stereo partly drawn) [Example 222, (S)-quinuclidin-3-yl (5-(3-fluoro-5-methoxyphenyl)-2,2-dimethyl-2,3-dihydro-1H-inden-1-yl)carbamate], with 7.59.
